Values after ≈ are worked out from the molar mass of the structure shown.
Legend:
[1] = molecular target: T1, Phospho-N-acetylmuramoyl-pentapeptide-transferase (Aquifex aeolicus (strain VF5), UniProt O66465); assay: Inhibition of Aquifex aeolicus MraY using UDP-MurNAc-pentapeptide as substrate measured after 5 mins by UMP-Glo glycosyltransferase assay
T1 sequence (O66465 whole entry): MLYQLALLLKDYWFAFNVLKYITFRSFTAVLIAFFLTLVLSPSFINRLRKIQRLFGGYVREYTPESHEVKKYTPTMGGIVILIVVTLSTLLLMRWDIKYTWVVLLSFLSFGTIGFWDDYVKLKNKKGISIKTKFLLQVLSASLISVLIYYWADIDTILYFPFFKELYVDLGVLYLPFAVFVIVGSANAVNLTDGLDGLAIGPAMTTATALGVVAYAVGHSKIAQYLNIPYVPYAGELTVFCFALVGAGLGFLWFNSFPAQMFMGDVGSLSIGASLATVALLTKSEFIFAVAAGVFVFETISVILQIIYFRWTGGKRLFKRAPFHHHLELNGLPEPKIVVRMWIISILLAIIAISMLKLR

[2] = test system: Staphylococcus aureus; assay: Antibacterial activity against Staphylococcus aureus SA113 assessed as growth inhibition; assay type: functional

| IC50 [1] [µM] | MIC [2] [µg/mL] | Structure (SMILES) |
| --- | --- | --- |
| 75 | 54 (≈ 60.4 µM) | CCCCCCCCCCCCCCCCC(=O)N[C@@H](CCCNC(=N)N)C(=O)NCCCN[C@H](C(=O)OC)[C@H](O[C@@H]1O[C@H](CN)[C@@H](O)[C@H]1O)[C@@H]1CC[C@H](n2ccc(=O)[nH]c2=O)C1 |
| 340 | – | CC(C)(C)OC(=O)[C@@H](NC(=O)OCc1ccccc1)[C@H](O[C@@H]1O[C@H](CN)[C@@H](O)[C@H]1O)[C@@H]1CC[C@H](n2ccc(=O)[nH]c2=O)C1 |
| 500 | – | NC[C@H]1O[C@@H](O[C@H]([C@@H]2CC[C@H](n3ccc(=O)[nH]c3=O)C2)[C@H](NC(=O)OCc2ccccc2)C(=O)O)[C@H](O)[C@@H]1O |
